Source: patent publication US20260014092A1, “EXTRACELLULAR VESICLES FROM MICROALGAE, THEIR USE FOR VACCINES AND FOR IMMUNOMODULATION” (AGS THERAPEUTICS SAS, priority 2023, published 2026)
“And” between values parts separate entries of the source, which are not always exact repeats. Equal values may be shown once. In the oligonucleotide strings, read from the 5' end, every base follows the letter of its sugar. An asterisk marks phosphorothioate; unmarked linkages are phosphodiester. Other units and linkages are bracketed, terminal groups are in braces. A string of capitals states the bases alone. d = 2'-deoxy (DNA)

Assays:
[1] = cited from earlier work
[2] = tested on: DSS-induced acute experimental colitis; test: DSS-induced acute colitis (IBD model): Disease Activity Index (DAI); format: in vivo, C57BL/6 female mice; parameters: scale not given here; settings: i.r.
Protocol: In mice, the disease can be induced by the treatment with Dextran Sodium Sulfate (DSS) to create a disease model for the evaluation of experimental therapies. Thus, the treatment of mice suffering from DSS-induced acute experimental colitis is a widely used animal model for the evaluation of therapies against the IBD disease. In our case, acute colitis was induced in mice by DSS 3% in drinking water for eight days. […] All handling of animals was conducted carefully to reduce stress to the minimum. All the experiments were performed in compliance with the guidelines of the French Ministry of Agriculture for experiments with laboratory animals.
Animals were randomized before treatment group's allocation based on body weight. The disease was induced by administration of DSS in drinking water (3%, w/v, MW: 40000, TdB Consultancy AB) in C57BL/6 female mice at 9 weeks of age. Mice were administered with test compounds either at D3 and D6 (M1, M3 and M5 intrarectal), or daily from D3 to D6 (M2 and M4, per os). Experimental groups were as follows: seven animals per group; a total of 49 mice.
Mice were euthanized at D8; samples were harvested to determine the extent of intestinal inflammation using various quantitative and semi quantitative methods including body weight evolution, clinical score (Disease Activity index; DAI, Table 13, below), large intestine measurement, cytokine analysis in colon and/or ileum tissue (TNFα, TGFβ, IFNα, IFNγ, IL-6 and IL-17A) and intestinal and colon histopathology for inflammation analysis, as follows and as summarized in Table 14, below.
In-Life Samples (all groups) • Bodyweight (daily) • Disease Activity Index (DAI) (diarrhea and blood in stool)
The life samples were recovered every day: i. body weight, ii. diarrhea, and iii. blood in stool and used to determine the disease activity index (DAI). The results are summarized in Table 33, for each animal in each group for seven consecutive days.

CCCCCCCCCCCCCCCCCCCCCC[N+]1=C(/C=C/C=C2/N(CCCCCCCCCCCCCC)c3ccccc3C2(C)C)C(C)(C)c2ccccc21.[I-] [PKH26]
in vivo half-life [1]: over 100 days

ODN 1585 (DNA dG*dG*dGdGdTdCdAdAdCdGdTdTdGdAdG*dG*dG*dG*dG*dG) [ODNA]
Cumulative score (DAI), Mean ([2]; D 0, group mean, D 3 and D 6, 50 μg/mouse): 0.00 | Cumulative score (DAI) ([2]; D 0, individual mice, D 3 and D 6, 50 μg/mouse): 0 | Cumulative score (DAI), Mean ([2]; D 1, group mean, D 3 and D 6, 50 μg/mouse): 0.14 | Cumulative score (DAI) ([2]; D 1, individual mice, D 3 and D 6, 50 μg/mouse): 0 (6×) and 1 | Cumulative score (DAI), Mean ([2]; D 2, group mean, D 3 and D 6, 50 μg/mouse): 0.14 | Cumulative score (DAI) ([2]; D 2, individual mice, D 3 and D 6, 50 μg/mouse): 0 (6×) and 1 | Cumulative score (DAI), Mean ([2]; D 3, group mean, D 3 and D 6, 50 μg/mouse): 0.14 | Cumulative score (DAI) ([2]; D 3, individual mice, D 3 and D 6, 50 μg/mouse): 0 (6×) and 1 | Cumulative score (DAI), Mean ([2]; D 4, group mean, D 3 and D 6, 50 μg/mouse): 1.71 | Cumulative score (DAI) ([2]; D 4, individual mice, D 3 and D 6, 50 μg/mouse): 2 and 5 and 3 and 1 (2×) and 0 (2×) | Cumulative score (DAI), Mean ([2]; D 5, group mean, D 3 and D 6, 50 μg/mouse): 4.14 | Cumulative score (DAI) ([2]; D 5, individual mice, D 3 and D 6, 50 μg/mouse): 2 and 8 and 4 (2×) and 3 (2×) and 5 | Cumulative score (DAI), Mean ([2]; D 6, group mean, D 3 and D 6, 50 μg/mouse): 6.14 | Cumulative score (DAI) ([2]; D 6, individual mice, D 3 and D 6, 50 μg/mouse): 7 (4×) and 6 (2×) and 3 | Cumulative score (DAI), Mean ([2]; D 7, group mean, D 3 and D 6, 50 μg/mouse): 6.71 | Cumulative score (DAI) ([2]; D 7, individual mice, D 3 and D 6, 50 μg/mouse): 8 (3×) and 7 (2×) and 6 and 3

cobitolimob (DNA GGAACAGTTCGTCCATGGC; listed as DNA, chemistry not given here) [ODNX]
Cumulative score (DAI), Mean ([2]; D 0, group mean, D 3 and D 6, 100 μg/mouse): 0.00 | Cumulative score (DAI) ([2]; D 0, individual mice, D 3 and D 6, 100 μg/mouse): 0 | Cumulative score (DAI), Mean ([2]; D 1, group mean, D 3 and D 6, 100 μg/mouse): 0.00 | Cumulative score (DAI) ([2]; D 1, individual mice, D 3 and D 6, 100 μg/mouse): 0 | Cumulative score (DAI), Mean ([2]; D 2, group mean, D 3 and D 6, 100 μg/mouse): 0.14 | Cumulative score (DAI) ([2]; D 2, individual mice, D 3 and D 6, 100 μg/mouse): 0 (6×) and 1 | Cumulative score (DAI), Mean ([2]; D 3, group mean, D 3 and D 6, 100 μg/mouse): 0.57 | Cumulative score (DAI) ([2]; D 3, individual mice, D 3 and D 6, 100 μg/mouse): 0 (5×) and 3 and 1 | Cumulative score (DAI), Mean ([2]; D 4, group mean, D 3 and D 6, 100 μg/mouse): 2.43 | Cumulative score (DAI) ([2]; D 4, individual mice, D 3 and D 6, 100 μg/mouse): 5 and 3 (2×) and 0 (2×) and 2 and 4 | Cumulative score (DAI), Mean ([2]; D 5, group mean, D 3 and D 6, 100 μg/mouse): 4.14 | Cumulative score (DAI) ([2]; D 5, individual mice, D 3 and D 6, 100 μg/mouse): 4 (3×) and 5 (2×) and 1 and 6 | Cumulative score (DAI), Mean ([2]; D 6, group mean, D 3 and D 6, 100 μg/mouse): 5.71 | Cumulative score (DAI) ([2]; D 6, individual mice, D 3 and D 6, 100 μg/mouse): 7 and 6 and 4 and 5 (2×) and 3 and 10 | Cumulative score (DAI), Mean ([2]; D 7, group mean, D 3 and D 6, 100 μg/mouse): 7.43 | Cumulative score (DAI) ([2]; D 7, individual mice, D 3 and D 6, 100 μg/mouse): 10 (2×) and 7 and 5 and 6 (2×) and 8
